{"source": "paper doi:10.1101/2020.07.01.182642v1", "about": "(biorxiv, 2020)", "settings_in_all_cases": "binder", "key": {"[1]": {"target": "CLK1 (H148-I484) (Homo sapiens, UniProt P49759, V324A)", "sequence (P49759 148-484 V324A)": "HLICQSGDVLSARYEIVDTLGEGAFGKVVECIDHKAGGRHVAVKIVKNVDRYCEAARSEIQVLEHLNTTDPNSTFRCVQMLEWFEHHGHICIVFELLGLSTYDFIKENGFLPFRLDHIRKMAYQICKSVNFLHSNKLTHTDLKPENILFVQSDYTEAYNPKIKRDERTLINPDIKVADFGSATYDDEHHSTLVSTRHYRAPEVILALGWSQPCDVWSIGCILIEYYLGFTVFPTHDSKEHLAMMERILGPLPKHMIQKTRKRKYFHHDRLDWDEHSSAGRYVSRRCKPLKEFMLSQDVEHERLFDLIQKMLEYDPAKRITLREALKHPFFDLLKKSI"}, "[2]": {"target": "CSNK2A2 (Homo sapiens, UniProt P19784)", "sequence (P19784 whole entry)": "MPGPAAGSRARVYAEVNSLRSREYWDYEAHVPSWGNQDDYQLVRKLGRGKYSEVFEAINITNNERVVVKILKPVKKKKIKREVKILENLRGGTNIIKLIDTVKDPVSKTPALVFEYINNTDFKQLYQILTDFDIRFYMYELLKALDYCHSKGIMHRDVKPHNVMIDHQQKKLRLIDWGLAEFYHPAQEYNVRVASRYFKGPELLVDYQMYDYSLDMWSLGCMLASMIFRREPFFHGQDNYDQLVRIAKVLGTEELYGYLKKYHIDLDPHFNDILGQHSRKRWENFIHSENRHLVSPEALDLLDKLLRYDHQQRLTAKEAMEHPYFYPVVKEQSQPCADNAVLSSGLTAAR"}, "[3]": {"target": "TYRO3 (Homo sapiens, UniProt Q06418)", "sequence (Q06418 whole entry)": "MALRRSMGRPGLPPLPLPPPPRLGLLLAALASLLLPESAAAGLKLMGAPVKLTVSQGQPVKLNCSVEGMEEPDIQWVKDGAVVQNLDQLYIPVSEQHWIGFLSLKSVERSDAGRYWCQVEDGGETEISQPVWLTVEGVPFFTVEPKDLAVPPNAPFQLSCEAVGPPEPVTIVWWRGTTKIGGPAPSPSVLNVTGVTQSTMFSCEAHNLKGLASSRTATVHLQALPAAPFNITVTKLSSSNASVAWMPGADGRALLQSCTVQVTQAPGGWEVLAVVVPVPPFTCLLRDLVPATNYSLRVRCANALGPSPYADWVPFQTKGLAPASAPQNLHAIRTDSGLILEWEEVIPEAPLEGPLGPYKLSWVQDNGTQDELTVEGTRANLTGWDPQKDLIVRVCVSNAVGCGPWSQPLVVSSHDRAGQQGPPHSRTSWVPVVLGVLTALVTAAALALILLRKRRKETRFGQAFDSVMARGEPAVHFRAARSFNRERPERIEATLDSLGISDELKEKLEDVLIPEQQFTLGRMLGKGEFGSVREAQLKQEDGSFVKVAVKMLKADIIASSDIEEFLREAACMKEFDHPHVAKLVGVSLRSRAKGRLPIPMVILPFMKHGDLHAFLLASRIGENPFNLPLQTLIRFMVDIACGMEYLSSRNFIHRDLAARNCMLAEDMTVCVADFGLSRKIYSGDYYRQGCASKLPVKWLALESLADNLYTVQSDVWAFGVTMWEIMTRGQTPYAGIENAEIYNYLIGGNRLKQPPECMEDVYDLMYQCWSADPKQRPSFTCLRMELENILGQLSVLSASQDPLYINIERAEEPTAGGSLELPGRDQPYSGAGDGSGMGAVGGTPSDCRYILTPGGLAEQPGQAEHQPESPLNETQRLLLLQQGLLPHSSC"}, "[4]": {"target": "STK38L (Homo sapiens, UniProt Q9Y2H1)", "sequence (Q9Y2H1 whole entry)": "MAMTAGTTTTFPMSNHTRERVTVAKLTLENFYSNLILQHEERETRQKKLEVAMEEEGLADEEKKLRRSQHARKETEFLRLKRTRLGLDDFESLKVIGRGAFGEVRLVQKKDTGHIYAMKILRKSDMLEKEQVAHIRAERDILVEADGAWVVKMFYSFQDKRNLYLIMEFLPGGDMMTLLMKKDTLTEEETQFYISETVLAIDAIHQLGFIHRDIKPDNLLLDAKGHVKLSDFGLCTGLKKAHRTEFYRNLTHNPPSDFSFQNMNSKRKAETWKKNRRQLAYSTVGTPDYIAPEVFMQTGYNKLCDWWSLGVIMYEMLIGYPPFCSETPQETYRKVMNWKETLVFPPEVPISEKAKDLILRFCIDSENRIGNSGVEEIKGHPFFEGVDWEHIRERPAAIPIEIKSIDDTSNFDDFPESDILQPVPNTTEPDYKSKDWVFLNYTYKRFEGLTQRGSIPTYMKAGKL"}, "[5]": {"target": "BMPR1B (Homo sapiens, UniProt O00238)"}, "[6]": {"target": "PAK7 (Homo sapiens, UniProt Q9P286)", "sequence (Q9P286 whole entry)": "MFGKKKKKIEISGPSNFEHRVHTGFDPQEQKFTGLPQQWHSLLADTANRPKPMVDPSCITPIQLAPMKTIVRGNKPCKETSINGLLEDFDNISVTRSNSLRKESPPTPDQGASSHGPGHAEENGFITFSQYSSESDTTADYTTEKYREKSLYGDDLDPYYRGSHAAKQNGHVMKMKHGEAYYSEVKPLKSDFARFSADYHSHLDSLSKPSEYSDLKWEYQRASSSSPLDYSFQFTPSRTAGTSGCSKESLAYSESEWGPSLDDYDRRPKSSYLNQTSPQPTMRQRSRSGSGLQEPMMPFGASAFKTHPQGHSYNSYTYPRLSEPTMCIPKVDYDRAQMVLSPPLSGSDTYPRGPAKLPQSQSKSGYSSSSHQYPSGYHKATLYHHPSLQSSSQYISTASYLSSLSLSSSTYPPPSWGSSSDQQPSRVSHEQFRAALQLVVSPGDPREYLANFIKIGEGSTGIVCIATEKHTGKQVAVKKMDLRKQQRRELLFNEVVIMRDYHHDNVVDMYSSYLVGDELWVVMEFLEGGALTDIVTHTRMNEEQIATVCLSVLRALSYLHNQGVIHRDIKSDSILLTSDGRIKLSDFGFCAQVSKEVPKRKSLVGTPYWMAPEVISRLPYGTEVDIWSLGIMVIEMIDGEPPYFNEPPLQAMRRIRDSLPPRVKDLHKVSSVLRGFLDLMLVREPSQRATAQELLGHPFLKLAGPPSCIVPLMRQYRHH"}, "[7]": {"target": "CSNK1G1 (Homo sapiens, UniProt Q9HCP0)", "sequence (Q9HCP0 whole entry)": "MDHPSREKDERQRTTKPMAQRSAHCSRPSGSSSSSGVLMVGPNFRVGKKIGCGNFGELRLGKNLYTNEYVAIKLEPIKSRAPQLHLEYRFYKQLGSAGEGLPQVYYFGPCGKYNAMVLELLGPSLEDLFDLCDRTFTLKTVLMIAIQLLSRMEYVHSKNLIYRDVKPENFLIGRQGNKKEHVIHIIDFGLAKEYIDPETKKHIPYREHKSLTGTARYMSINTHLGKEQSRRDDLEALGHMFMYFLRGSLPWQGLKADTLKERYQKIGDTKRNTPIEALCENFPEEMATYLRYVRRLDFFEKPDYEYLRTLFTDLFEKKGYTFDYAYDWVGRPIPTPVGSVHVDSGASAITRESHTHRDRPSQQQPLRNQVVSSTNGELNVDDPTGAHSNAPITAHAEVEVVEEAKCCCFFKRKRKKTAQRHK"}, "[8]": {"target": "T1, BMX (Homo sapiens, UniProt P51813)", "T1 sequence (P51813 1-675)": "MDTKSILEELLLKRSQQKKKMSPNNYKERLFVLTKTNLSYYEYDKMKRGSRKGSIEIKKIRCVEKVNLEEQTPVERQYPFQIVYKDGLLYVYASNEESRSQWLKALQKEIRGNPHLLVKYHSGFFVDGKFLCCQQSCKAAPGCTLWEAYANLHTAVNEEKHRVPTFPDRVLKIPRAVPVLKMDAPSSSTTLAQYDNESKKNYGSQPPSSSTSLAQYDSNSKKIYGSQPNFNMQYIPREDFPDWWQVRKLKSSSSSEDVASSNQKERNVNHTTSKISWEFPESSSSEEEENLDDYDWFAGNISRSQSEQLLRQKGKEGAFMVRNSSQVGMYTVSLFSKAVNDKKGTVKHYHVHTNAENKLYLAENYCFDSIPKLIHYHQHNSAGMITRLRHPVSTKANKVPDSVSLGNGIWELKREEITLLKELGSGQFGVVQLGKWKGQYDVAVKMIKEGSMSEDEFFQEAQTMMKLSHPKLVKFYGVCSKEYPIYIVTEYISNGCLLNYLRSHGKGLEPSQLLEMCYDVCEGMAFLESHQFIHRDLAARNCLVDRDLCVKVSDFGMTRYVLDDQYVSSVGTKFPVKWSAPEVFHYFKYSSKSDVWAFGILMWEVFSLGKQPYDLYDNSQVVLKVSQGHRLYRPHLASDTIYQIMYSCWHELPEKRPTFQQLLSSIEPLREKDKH"}, "[9]": {"target": "T2, DYRK2 (Homo sapiens, UniProt Q92630)", "T2 sequence (Q92630 1-601)": "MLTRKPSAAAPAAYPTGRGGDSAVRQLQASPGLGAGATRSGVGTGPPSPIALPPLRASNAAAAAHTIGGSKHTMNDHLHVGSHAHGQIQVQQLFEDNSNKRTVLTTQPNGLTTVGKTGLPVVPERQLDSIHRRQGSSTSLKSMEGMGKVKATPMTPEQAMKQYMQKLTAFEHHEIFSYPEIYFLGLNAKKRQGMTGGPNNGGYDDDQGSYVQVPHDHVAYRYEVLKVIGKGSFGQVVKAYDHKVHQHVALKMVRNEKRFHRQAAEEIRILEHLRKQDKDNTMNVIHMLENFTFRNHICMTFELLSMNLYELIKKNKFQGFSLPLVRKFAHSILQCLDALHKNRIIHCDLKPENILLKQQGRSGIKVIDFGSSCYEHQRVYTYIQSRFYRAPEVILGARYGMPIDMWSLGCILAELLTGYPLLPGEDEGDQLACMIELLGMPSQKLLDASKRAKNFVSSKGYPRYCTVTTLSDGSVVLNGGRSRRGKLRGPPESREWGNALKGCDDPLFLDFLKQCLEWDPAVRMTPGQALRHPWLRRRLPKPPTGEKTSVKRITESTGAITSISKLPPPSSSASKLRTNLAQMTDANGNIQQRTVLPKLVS"}, "[10]": {"target": "CDK6 (Homo sapiens, UniProt Q00534)", "sequence (Q00534 whole entry)": "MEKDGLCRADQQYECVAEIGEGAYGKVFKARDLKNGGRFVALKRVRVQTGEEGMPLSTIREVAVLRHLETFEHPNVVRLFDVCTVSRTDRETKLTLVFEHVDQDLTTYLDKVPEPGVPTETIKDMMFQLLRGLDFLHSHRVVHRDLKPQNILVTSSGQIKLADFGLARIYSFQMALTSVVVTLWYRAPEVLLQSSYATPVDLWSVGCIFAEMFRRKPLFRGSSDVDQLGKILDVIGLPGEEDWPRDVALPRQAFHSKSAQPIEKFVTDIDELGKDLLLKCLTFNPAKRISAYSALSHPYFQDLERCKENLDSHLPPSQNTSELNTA"}, "[11]": {"target": "STK33 (Homo sapiens, UniProt Q9BYT3)", "sequence (Q9BYT3 whole entry)": "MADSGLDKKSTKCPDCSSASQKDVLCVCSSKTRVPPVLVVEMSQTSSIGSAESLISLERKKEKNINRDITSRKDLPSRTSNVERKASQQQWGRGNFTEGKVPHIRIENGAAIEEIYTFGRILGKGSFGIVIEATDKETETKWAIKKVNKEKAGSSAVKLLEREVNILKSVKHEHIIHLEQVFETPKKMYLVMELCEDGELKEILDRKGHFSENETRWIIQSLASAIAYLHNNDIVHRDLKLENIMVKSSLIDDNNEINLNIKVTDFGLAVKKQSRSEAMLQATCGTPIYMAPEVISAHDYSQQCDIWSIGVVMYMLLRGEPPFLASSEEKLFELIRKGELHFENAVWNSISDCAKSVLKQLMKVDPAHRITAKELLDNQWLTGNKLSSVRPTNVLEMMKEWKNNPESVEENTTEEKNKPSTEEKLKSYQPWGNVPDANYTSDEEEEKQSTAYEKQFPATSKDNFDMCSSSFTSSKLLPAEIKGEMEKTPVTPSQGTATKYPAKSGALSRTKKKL"}, "[12]": {"target": "CLK3 (R134-T484) (Homo sapiens, UniProt P49761, A319V)"}, "[13]": {"target": "CDKL2 (Homo sapiens, UniProt Q92772)", "sequence (Q92772 whole entry)": "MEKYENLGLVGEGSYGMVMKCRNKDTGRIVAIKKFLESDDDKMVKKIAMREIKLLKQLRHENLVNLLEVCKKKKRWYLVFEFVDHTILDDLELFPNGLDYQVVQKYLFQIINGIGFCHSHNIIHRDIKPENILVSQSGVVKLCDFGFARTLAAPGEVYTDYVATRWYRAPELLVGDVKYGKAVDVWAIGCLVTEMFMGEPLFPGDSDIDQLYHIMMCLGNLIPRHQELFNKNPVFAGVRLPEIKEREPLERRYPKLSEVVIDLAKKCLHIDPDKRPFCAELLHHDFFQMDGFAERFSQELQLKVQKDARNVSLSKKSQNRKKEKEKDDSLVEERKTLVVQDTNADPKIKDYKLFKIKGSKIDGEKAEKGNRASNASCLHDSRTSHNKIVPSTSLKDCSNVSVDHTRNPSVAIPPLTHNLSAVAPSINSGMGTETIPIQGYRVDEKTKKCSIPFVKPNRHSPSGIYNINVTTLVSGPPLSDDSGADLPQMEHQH"}, "[14]": {"target": "PRKG1 (Homo sapiens, UniProt Q13976)"}, "[15]": {"target": "SRPK2 (Homo sapiens, UniProt P78362)"}, "[16]": {"target": "NEK2 (Homo sapiens, UniProt P51955)", "sequence (P51955 whole entry)": "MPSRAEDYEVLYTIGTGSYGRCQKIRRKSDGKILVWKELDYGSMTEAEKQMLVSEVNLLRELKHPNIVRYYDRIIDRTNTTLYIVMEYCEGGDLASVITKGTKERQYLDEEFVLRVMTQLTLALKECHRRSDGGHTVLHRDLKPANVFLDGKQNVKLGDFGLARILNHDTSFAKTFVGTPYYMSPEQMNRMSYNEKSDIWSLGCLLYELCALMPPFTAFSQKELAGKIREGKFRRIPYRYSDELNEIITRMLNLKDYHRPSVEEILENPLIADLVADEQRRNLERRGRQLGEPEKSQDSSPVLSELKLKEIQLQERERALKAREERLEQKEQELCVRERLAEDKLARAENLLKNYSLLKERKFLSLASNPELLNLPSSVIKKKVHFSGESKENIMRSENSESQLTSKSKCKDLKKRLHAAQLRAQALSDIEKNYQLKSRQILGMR"}, "[17]": {"target": "PDPK1 (Homo sapiens, UniProt O15530)"}, "[18]": {"target": "SIK2 (Homo sapiens, UniProt Q9H0K1)"}, "[19]": {"target": "NEK1 (Homo sapiens, UniProt Q96PY6)"}}}
{"smiles": "CC(=O)c1cccc(-c2cnc3ccc(NCC4CC4)nn23)c1", "note": "[compound 1, K00135]", "values": [{"measurement": "ΔTm V324A CLK1", "setting": "[1]", "value": 4.9, "unit": "°C"}, {"measurement": "ΔTm inhibitor 1", "setting": "[2]", "value": 3.3, "unit": "°C"}, {"measurement": "ΔTm inhibitor 1", "setting": "[3]", "value": 0.4, "unit": "°C"}, {"measurement": "ΔTm inhibitor 1", "setting": "[4]", "value": 0.4, "unit": "°C"}, {"measurement": "ΔTm inhibitor 1", "setting": "[5]", "value": 11.5, "unit": "°C"}, {"measurement": "ΔTm inhibitor 1", "setting": "[6]", "value": 0.4, "unit": "°C"}, {"measurement": "ΔTm inhibitor 1", "setting": "[7]", "value": 1.7, "unit": "°C"}, {"measurement": "ΔTm inhibitor 1", "setting": "[8]", "value": 0.4, "unit": "°C"}, {"measurement": "ΔTm inhibitor 1", "setting": "[9]", "value": 4.1, "unit": "°C"}, {"measurement": "ΔTm inhibitor 1", "setting": "[10]", "value": 0.1, "unit": "°C"}, {"measurement": "ΔTm 1", "setting": "[11]", "value": 3.1, "unit": "°C"}, {"measurement": "ΔTm A319V CLK3", "setting": "[12]", "value": 5.8, "unit": "°C"}]}
{"smiles": "CCN1/C(=C/C(C)=O)Sc2ccc(OC)cc21", "note": "[compound 2, TG003]", "values": [{"measurement": "ΔTm inhibitor 2", "setting": "[13]", "value": -0.5, "unit": "°C"}, {"measurement": "ΔTm inhibitor 2", "setting": "[14]", "value": 1.6, "unit": "°C"}, {"measurement": "ΔTm inhibitor 2", "setting": "[15]", "value": -0.2, "unit": "°C"}, {"measurement": "ΔTm inhibitor 2", "setting": "[16]", "value": 0.8, "unit": "°C"}, {"measurement": "ΔTm inhibitor 2", "setting": "[2]", "value": 2.6, "unit": "°C"}, {"measurement": "ΔTm inhibitor 2", "setting": "[3]", "value": 0.1, "unit": "°C"}, {"measurement": "ΔTm inhibitor 2", "setting": "[17]", "value": 0.2, "unit": "°C"}, {"measurement": "ΔTm inhibitor 2", "setting": "[4]", "value": 0.3, "unit": "°C"}, {"measurement": "ΔTm inhibitor 2", "setting": "[6]", "value": -0.1, "unit": "°C"}, {"measurement": "ΔTm inhibitor 2", "setting": "[7]", "value": 3.2, "unit": "°C"}, {"measurement": "ΔTm inhibitor 2", "setting": "[18]", "value": -0.2, "unit": "°C"}, {"measurement": "ΔTm inhibitor 2", "setting": "[8]", "value": -0.1, "unit": "°C"}, {"measurement": "ΔTm inhibitor 2", "setting": "[9]", "value": 7.3, "unit": "°C"}, {"measurement": "ΔTm inhibitor 2", "setting": "[19]", "value": -0.3, "unit": "°C"}, {"measurement": "ΔTm inhibitor 2", "setting": "[10]", "value": 0.4, "unit": "°C"}, {"measurement": "ΔTm 2", "setting": "[11]", "value": 0.6, "unit": "°C"}]}
{"smiles": "Nc1nccc(-c2ccc3noc(-c4ccc(Cl)cc4)c3c2)n1", "note": "[compound 4, K00972]", "values": [{"measurement": "ΔTm V324A CLK1", "setting": "[1]", "value": 2.4, "unit": "°C"}, {"measurement": "ΔTm inhibitor 4", "setting": "[13]", "value": 0.1, "unit": "°C"}, {"measurement": "ΔTm inhibitor 4", "setting": "[14]", "value": 0.5, "unit": "°C"}, {"measurement": "ΔTm inhibitor 4", "setting": "[15]", "value": 0.4, "unit": "°C"}, {"measurement": "ΔTm inhibitor 4", "setting": "[16]", "value": 0.1, "unit": "°C"}, {"measurement": "ΔTm inhibitor 4", "setting": "[2]", "value": 0.9, "unit": "°C"}, {"measurement": "ΔTm inhibitor 4", "setting": "[17]", "value": 0.3, "unit": "°C"}, {"measurement": "ΔTm inhibitor 4", "setting": "[4]", "value": 0.9, "unit": "°C"}, {"measurement": "ΔTm inhibitor 4", "setting": "[5]", "value": 0.2, "unit": "°C"}, {"measurement": "ΔTm inhibitor 4", "setting": "[6]", "value": 0.6, "unit": "°C"}, {"measurement": "ΔTm inhibitor 4", "setting": "[7]", "value": 1.0, "unit": "°C"}, {"measurement": "ΔTm inhibitor 4", "setting": "[18]", "value": 0.4, "unit": "°C"}, {"measurement": "ΔTm inhibitor 4", "setting": "[8]", "value": 0.4, "unit": "°C"}, {"measurement": "ΔTm inhibitor 4", "setting": "[9]", "value": 8.9, "unit": "°C"}, {"measurement": "ΔTm inhibitor 4", "setting": "[19]", "value": 0.6, "unit": "°C"}, {"measurement": "ΔTm 4", "setting": "[11]", "value": 2.4, "unit": "°C"}, {"measurement": "ΔTm A319V CLK3", "setting": "[12]", "value": 0.6, "unit": "°C"}]}
